One experiment has as its system WI-38. The experiment in a line: Antiproliferative activity against human WI-38 cells after 72 hrs by alamarBlue assay. Format: cell-based. As to conditions: WI-38, 72 h. (Resazurin is reduced to fluorescent resorufin, in cell work by metabolically active cells.)
The test system of a further experiment is HL-60. As to the kind of experiment: cells. As to conditions: Homo sapiens, HL-60, 72 h.
A further experiment deals with LSD1/CoREST complex (Homo sapiens, UniProt O60341). The experiment in a line: Inhibition of human LSD1/CoREST. In kind it is protein-complex assay.

A word on the IC50: it is the point on the concentration scale where inhibition reaches its midpoint. Low readings indicate greater potency, high ones weaker potency. Usually Ki stands for a dissociation constant, usually derived from enzyme kinetics or from competition with a known ligand.

Residues, ends and D or L forms follow the SMILES beside them.

Description for HL-60: Antiproliferative activity against human HL-60 cells measured after 72 hrs by alamarBlue assay

In the case of `CC(C)C[C@@H]1NC(=O)[C@H](Cc2ccccc2)NC(=O)[C@H](CO)NC(=O)[C@H](CCCNC(=N)N)NC(=O)[C@@H]2CCCN2C(=O)OCCOCCn2cc(nn2)COc2cc(cc(C(=O)N[C@@H](CCCNC(=N)N)C(=O)N[C@@H](CCCNC(=N)N)C(=O)N[C@@H](CCCNC(=N)N)C(=O)N[C@@H](CCCNC(=N)N)C(=O)N[C@@H](CCCNC(=N)N)C(=O)N[C@@H](CCCNC(=N)N)C(=O)N[C@@H](CCCNC(=N)N)C(=O)N[C@@H](CCCNC(=N)N)C(=O)N[C@@H](CCCNC(=N)N)C(=O)N[C@@H](CCCNC(=N)N)C(N)=O)c2)OCc2cn(nn2)CCOCCOC(=O)NCCCC[C@@H](C(N)=O)NC(=O)[C@H](CCCNC(=N)N)NC(=O)[C@H](CCCNC(=N)N)NC(=O)[C@H](C(C)C)NC1=O`, the concentration for half-maximal inhibition (IC50) was above 100 µM in the experiment with WI-38 and 17 µM with HL-60.
On the same counts, the results for `CC(C)C[C@H](NC(=O)[C@H](Cc1ccccc1)NC(=O)[C@H](CO)NC(=O)[C@H](CCCNC(=N)N)NC(=O)[C@@H]1CCCN1)C(=O)N[C@H](C(=O)N[C@@H](CCCNC(=N)N)C(=O)N[C@@H](CCCNC(=N)N)C(=O)N[C@@H](CCCCN)C(=O)O)C(C)C` (H-PRSFLVRRK-OH) are above 100 µM and above 100 µM.
`CN1CCN(C(=O)CNC2CC2c2cc(F)cc(F)c2OCc2ccccc2)CC1` (centres undefined) had an IC50 with WI-38 above 50 µM.
`N=C(N)NCCC[C@H](NC(=O)[C@H](CCCNC(=N)N)NC(=O)[C@H](CCCNC(=N)N)NC(=O)[C@H](CCCNC(=N)N)NC(=O)[C@H](CCCNC(=N)N)NC(=O)[C@H](CCCNC(=N)N)NC(=O)[C@H](CCCNC(=N)N)NC(=O)[C@H](CCCNC(=N)N)NC(=O)[C@H](CCCNC(=N)N)NC(=O)[C@H](CCCNC(=N)N)NC(=O)c1cc(OCc2cn(CCO)nn2)cc(OCc2cn(CCO)nn2)c1)C(N)=O` showed a Ki at LSD1/CoREST complex of 0.17 µM. Also, the IC50 in the experiment on HL-60 is above 100 µM.
For `CC(C)C[C@@H]1NC(=O)[C@H](Cc2ccccc2)NC(=O)[C@H](CO)NC(=O)[C@H](CCCNC(=N)N)NC(=O)[C@@H]2CCCN2C(=O)OCCSSCCn2cc(nn2)COc2cc(cc(C(=O)N[C@@H](CCCNC(=N)N)C(=O)N[C@@H](CCCNC(=N)N)C(=O)N[C@@H](CCCNC(=N)N)C(=O)N[C@@H](CCCNC(=N)N)C(=O)N[C@@H](CCCNC(=N)N)C(=O)N[C@@H](CCCNC(=N)N)C(=O)N[C@@H](CCCNC(=N)N)C(=O)N[C@@H](CCCNC(=N)N)C(=O)N[C@@H](CCCNC(=N)N)C(=O)N[C@@H](CCCNC(=N)N)C(N)=O)c2)OCc2cn(nn2)CCSSCCOC(=O)NCCCC[C@@H](C(N)=O)NC(=O)[C@H](CCCNC(=N)N)NC(=O)[C@H](CCCNC(=N)N)NC(=O)[C@H](C(C)C)NC1=O`, the concentration for half-maximal inhibition (IC50) in the experiment on WI-38 worked out at 41 µM; with HL-60, 5.2 µM.

The record behind these values is ChEMBL document CHEMBL5053484, “Structure-Based Identification of Potent Lysine-Specific Demethylase 1 Inhibitor Peptides and Temporary Cyclization to Enhance Proteolytic Stability and Cell Growth-Inhibitory Activity” (J Med Chem, 2021).
